Reference: ChEMBL document CHEMBL1909046, “DrugMatrix in vitro pharmacology data”

Experiments:
[1] = DRUGMATRIX: Sigma2 radioligand binding (ligand: [3H] Ifenprodil); assay type: cell membranes, Rattus norvegicus, Wistar, Brain, Membrane; conditions: Not Active = under 50% inhibition at 10 µM
[2] = biological target: cGMP-specific 3',5'-cyclic phosphodiesterase (Homo sapiens, UniProt O76074); test: DRUGMATRIX: Phosphodiesterase PDE5 enzyme inhibition (substrate: [3H]cGMP + cGMP); assay type: tissue-based, Platelet; conditions: platelet; Not Active = under 50% inhibition at 10 µM
Adenosine receptor A2a = Adenosine receptor A2a (Homo sapiens, UniProt P29274); test: DRUGMATRIX: Adenosine A2A radioligand binding (ligand: […]); assay type: cell membranes, HEK293, Membrane; conditions: hek293; Not Active = under 50% inhibition at 10 µM
[3] = biological target: T1, Cholecystokinin receptor type A (Homo sapiens, UniProt P32238); assay type: cell membranes, Membrane; conditions: 1321-n1; further: in other assays of this panel Not Active means under 50% inhibition at 10 µM
T1 sequence (P32238 whole entry): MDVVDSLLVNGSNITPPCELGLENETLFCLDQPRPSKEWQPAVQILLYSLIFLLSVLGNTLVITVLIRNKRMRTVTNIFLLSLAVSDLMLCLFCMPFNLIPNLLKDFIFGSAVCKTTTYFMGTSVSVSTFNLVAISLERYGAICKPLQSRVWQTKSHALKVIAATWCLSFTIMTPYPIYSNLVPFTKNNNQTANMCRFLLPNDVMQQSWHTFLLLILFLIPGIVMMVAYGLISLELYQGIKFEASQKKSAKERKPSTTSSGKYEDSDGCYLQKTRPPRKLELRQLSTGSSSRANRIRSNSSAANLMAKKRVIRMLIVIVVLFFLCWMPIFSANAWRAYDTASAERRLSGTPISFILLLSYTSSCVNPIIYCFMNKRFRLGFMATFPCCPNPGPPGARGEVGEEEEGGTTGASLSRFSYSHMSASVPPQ

[4] = biological target: C-C chemokine receptor type 2 (Homo sapiens, UniProt P41597); assay type: cell membranes, Membrane; conditions: cho-k1; further: in other assays of this panel Not Active means under 50% inhibition at 10 µM
[5] = biological target: T2, Cysteinyl leukotriene receptor 1 (Homo sapiens, UniProt Q9Y271); assay type: cell membranes, Membrane; conditions: cho-k1; further: in other assays of this panel Not Active means under 50% inhibition at 10 µM
T2 sequence (Q9Y271 whole entry): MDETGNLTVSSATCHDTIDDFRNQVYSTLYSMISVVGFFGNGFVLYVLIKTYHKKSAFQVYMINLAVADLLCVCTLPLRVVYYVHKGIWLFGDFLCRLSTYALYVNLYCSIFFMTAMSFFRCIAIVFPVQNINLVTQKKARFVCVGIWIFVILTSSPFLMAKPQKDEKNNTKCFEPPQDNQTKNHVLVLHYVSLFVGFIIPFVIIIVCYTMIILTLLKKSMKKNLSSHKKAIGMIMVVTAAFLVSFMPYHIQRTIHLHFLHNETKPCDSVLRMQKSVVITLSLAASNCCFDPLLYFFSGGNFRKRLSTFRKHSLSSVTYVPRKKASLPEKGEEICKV

[6] = biological target: Receptor tyrosine-protein kinase erbB-2 (Homo sapiens, UniProt P04626); test: biochemical; assay type: cell-based, Insect cells; conditions: insect cells;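 further: inhibition of HER2 kinase enzyme activity, measured with Poly(Glu:Tyr) as the phosphorylation substrate; in other assays of this panel Not Active means under 50% inhibition at 10 µM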

Chain of Adenosine receptor A2a (P29274 whole entry): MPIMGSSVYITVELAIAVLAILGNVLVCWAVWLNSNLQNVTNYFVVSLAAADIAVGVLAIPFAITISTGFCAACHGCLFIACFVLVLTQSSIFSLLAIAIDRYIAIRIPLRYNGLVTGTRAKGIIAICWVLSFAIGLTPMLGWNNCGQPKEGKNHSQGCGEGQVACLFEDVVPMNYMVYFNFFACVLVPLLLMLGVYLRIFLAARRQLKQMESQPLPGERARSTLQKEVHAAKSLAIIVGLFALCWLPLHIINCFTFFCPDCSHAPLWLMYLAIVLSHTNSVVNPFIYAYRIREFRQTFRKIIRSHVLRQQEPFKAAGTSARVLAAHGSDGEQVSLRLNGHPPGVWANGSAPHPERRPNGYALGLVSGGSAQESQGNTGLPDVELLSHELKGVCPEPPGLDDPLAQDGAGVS
Chain of C-C chemokine receptor type 2 (P41597 whole entry): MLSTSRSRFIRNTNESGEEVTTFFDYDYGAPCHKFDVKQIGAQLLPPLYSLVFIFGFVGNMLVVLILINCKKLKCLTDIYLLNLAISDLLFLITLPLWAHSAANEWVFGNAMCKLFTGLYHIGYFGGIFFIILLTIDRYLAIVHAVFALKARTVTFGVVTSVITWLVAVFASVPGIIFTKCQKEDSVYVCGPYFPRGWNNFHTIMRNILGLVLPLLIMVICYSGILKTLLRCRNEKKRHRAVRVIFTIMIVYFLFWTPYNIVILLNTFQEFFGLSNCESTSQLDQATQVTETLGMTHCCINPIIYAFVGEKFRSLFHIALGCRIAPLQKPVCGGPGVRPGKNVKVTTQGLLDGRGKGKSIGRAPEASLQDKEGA

CCOC(=O)c1ncn2c1CN(C)C(=O)c1cc(F)ccc1-2 [FLUMAZENIL]
Not Active: IC50 [1] | Ki [1] | IC50 [2] | IC50 (Adenosine receptor A2a) | IC50 [3] | IC50 [4] | IC50 [5] | IC50 [6]

NNCCc1ccccc1 [PHENELZINE]
Not Active: IC50 [1] | Ki [1] | IC50 [2] | IC50 (Adenosine receptor A2a) | IC50 [3] | IC50 [4] | IC50 [5] | IC50 [6]

COc1ccc2c(c1OC)C(=O)O[C@@H]2[C@H]1c2c(cc3c(c2OC)OCO3)CCN1C [NOSCAPINE]
Not Active: IC50 [1] | Ki [1] | IC50 [2] | IC50 (Adenosine receptor A2a) | IC50 [3] | IC50 [4] | IC50 [5] | IC50 [6]

COBALTOUS CHLORIDE
Not Active: IC50 [1] | Ki [1] | IC50 [2] | Ki [2] | IC50 (Adenosine receptor A2a) | Ki (Adenosine receptor A2a) | IC50 [3] | Ki [3] | IC50 [4] | Ki [4] | IC50 [5] | Ki [5] | IC50 [6] | Ki [6]

CC(=O)Oc1ccccc1C(=O)O [ASPIRIN]
Not Active: IC50 [1] | Ki [1] | IC50 [2] | IC50 (Adenosine receptor A2a) | IC50 [3] | IC50 [4] | IC50 [5] | IC50 [6]

CCN(CC)CCNC(=O)c1ccc(N)cc1 [PROCAINAMIDE]
Not Active: IC50 [1] | Ki [1] | IC50 [2] | IC50 (Adenosine receptor A2a) | IC50 [3] | IC50 [4] | IC50 [5] | IC50 [6]

Cc1c(O)cccc1C(=O)N[C@@H](CSc1ccccc1)[C@H](O)CN1C[C@H]2CCCC[C@H]2C[C@H]1C(=O)NC(C)(C)C
Not Active: IC50 [1] | Ki [1] | IC50 [2] | IC50 (Adenosine receptor A2a) | IC50 [3] | IC50 [4] | IC50 [5] | IC50 [6]

Cc1cccc(C)c1NC(=O)C1CCCCN1C (stereo not drawn) [MEPIVACAINE]
Not Active: IC50 [1] | Ki [1] | IC50 [2] | IC50 (Adenosine receptor A2a) | IC50 [3] | IC50 [4] | IC50 [5] | IC50 [6]

O=c1[nH]c(=O)n([C@H]2C[C@H](O)[C@@H](CO)O2)cc1F [FLOXURIDINE]
Not Active: IC50 [1] | Ki [1] | IC50 [2] | IC50 (Adenosine receptor A2a) | IC50 [3] | IC50 [4] | IC50 [5] | IC50 [6]

O=C(O)CC(O)(CC(=O)O)C(=O)O [CITRIC ACID]
Not Active: IC50 [1] | Ki [1] | IC50 [2] | IC50 (Adenosine receptor A2a) | IC50 [3] | IC50 [4] | IC50 [5] | IC50 [6]

Cc1cc(O)cc(C)c1Cl [CHLOROXYLENOL]
Not Active: IC50 [1] | Ki [1] | IC50 [2] | IC50 (Adenosine receptor A2a) | IC50 [3] | IC50 [4] | IC50 [5] | IC50 [6]

O=C(O)CCCc1cccs1
Not Active: IC50 [1] | Ki [1] | IC50 [2] | IC50 (Adenosine receptor A2a) | IC50 [3] | IC50 [4] | IC50 [5] | IC50 [6]

CCCNC(=O)NS(=O)(=O)c1ccc(Cl)cc1 [CHLORPROPAMIDE]
Not Active: IC50 [1] | Ki [1] | IC50 [2] | IC50 (Adenosine receptor A2a) | IC50 [3] | IC50 [4] | IC50 [5] | IC50 [6]

CC(=O)OC[C@H]1O[C@@H](n2ncc(=O)[nH]c2=O)[C@H](OC(C)=O)[C@@H]1OC(C)=O [AZARIBINE]
Not Active: IC50 [1] | Ki [1] | IC50 [2] | IC50 (Adenosine receptor A2a) | IC50 [3] | IC50 [4] | IC50 [5] | IC50 [6]

NCCCNCCSP(=O)(O)O [AMIFOSTINE]
Not Active: IC50 [1] | Ki [1] | IC50 [2] | IC50 (Adenosine receptor A2a) | IC50 [3] | IC50 [4] | IC50 [5] | IC50 [6]

CC(C)(C)NCC(O)COc1cccc2c1CC(O)C(O)C2 (stereo not drawn) [NADOLOL]
Not Active: IC50 [1] | Ki [1] | IC50 [2] | IC50 (Adenosine receptor A2a) | IC50 [3] | IC50 [4] | IC50 [5] | IC50 [6]

C[C@H]1COc2c(N3CCN(C)CC3)c(F)cc3c(=O)c(C(=O)O)cn1c23.C[C@H]1COc2c(N3CCN(C)CC3)c(F)cc3c(=O)c(C(=O)O)cn1c23.O [LEVOFLOXACIN]
Not Active: IC50 [1] | Ki [1] | IC50 [2] | IC50 (Adenosine receptor A2a) | IC50 [3] | IC50 [4] | IC50 [5] | IC50 [6]

COc1ccnc(C[S+]([O-])c2nc3ccc(OC(F)F)cc3[nH]2)c1OC (stereo not drawn) [PANTOPRAZOLE]
Not Active: IC50 [1] | Ki [1] | IC50 [2] | IC50 (Adenosine receptor A2a) | IC50 [3] | IC50 [4] | IC50 [5] | IC50 [6]

CCCCC1=NC2(CCCC2)C(=O)N1Cc1ccc(-c2ccccc2-c2nnn[nH]2)cc1 [IRBESARTAN]
Not Active: IC50 [1] | Ki [1] | IC50 [2] | IC50 (Adenosine receptor A2a) | IC50 [3] | IC50 [4] | IC50 [5] | IC50 [6]

COC(=O)Nc1nc2cc(C(=O)c3ccc(F)cc3)ccc2[nH]1 [FLUBENDAZOLE]
Not Active: IC50 [1] | Ki [1] | IC50 [2] | IC50 (Adenosine receptor A2a) | IC50 [3] | IC50 [4] | IC50 [5] | IC50 [6]

CN(C)CCC=C1c2ccccc2CCc2ccccc21 [AMITRIPTYLINE]
Not Active: IC50 [1] | Ki [1] | IC50 [2] | IC50 (Adenosine receptor A2a) | IC50 [3] | IC50 [4] | IC50 [5] | IC50 [6]

Cc1ccc(C)c(OCCCC(C)(C)C(=O)O)c1 [GEMFIBROZIL]
Not Active: IC50 [1] | Ki [1] | IC50 [2] | IC50 (Adenosine receptor A2a) | IC50 [3] | IC50 [4] | IC50 [5] | IC50 [6]

C[N+](C)(C)C[C@H](O)CC(=O)[O-] [LEVOCARNITINE]
Not Active: IC50 [1] | Ki [1] | IC50 [2] | IC50 (Adenosine receptor A2a) | IC50 [3] | IC50 [4] | IC50 [5] | IC50 [6]

CNC1=Nc2ccc(Cl)cc2C(c2ccccc2)=[N+]([O-])C1 [CHLORDIAZEPOXIDE]
Not Active: IC50 [1] | Ki [1] | IC50 [2] | IC50 (Adenosine receptor A2a) | IC50 [3] | IC50 [4] | IC50 [5] | IC50 [6]
